Counter-ions that a name gives are not always drawn.
How the values were obtained:
[1] = target: T1, α1B adrenoceptor (spleen) (Rattus norvegicus, UniProt P15823); assay: In vitro functional assay, isolated spleen, phenylepinephrine contraction; type: cell-based; details: for Kb: read-out: α Adrenoceptor Subtype (pKB) α1B (converted)
T1 construct: Isolated tissues were mounted in organ bath containing Krebs Henseleit buffer; from tissue; host or cells: isolated rat spleen
T1 sequence (P15823 1-515): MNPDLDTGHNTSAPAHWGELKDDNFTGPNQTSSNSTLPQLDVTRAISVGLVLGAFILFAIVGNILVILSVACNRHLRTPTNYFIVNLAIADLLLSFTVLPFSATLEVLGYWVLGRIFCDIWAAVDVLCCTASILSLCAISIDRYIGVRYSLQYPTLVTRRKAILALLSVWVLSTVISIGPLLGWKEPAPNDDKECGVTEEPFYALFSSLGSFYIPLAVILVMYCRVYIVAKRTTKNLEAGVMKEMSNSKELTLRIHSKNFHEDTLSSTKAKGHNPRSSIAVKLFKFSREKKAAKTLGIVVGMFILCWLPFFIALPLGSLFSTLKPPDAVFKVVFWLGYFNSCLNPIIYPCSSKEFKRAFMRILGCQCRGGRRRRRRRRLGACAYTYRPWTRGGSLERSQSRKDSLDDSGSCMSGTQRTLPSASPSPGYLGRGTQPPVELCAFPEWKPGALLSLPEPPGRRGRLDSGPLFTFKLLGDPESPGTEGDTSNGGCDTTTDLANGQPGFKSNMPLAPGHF
Description: (§1) In order to study selectivity of action of these compounds towards different a-adrenoceptor subtypes, the ability of these compounds to antagonise (α1D) prostate (α1A) and spleen (α1B) was studied. Aorta and spleen tissues were isolated from urethane anaesthetized (1.5 g/kg) male wister rats. Isolated tissues were mounted in organ bath containing Krebs Henseleit buffer of the following composition (mM): NaCl 118; KCl 4.7; CaCl2 2.5; MgSO4 7H2O 1.2; NaHCO3 25; KH2PO4 1.2; glucose 11.5. Buffer was maintained at 37° C. and aereated with a mixture of 95% O2 and 5% CO2. A resting tension of 2 g (aorta) or 1 g (spleen and prostate) was applied to tissues. Contractile response was monitored using a force displacement transducer and recorded on chart recorders. Tissues were allowed to equilibrate for 2 hours. At the end of equilibration period, concentration response curves to norepinephrine (aorta) and phenylepinephrine (spleen and prostate) were obtained in the absence and presence of tested compound (at concentration of […]). Antagonist affinity was calculated and expressed as pKB values in Table II.

[2] = target: T2, α1A adrenoceptor (prostate) (Rattus norvegicus, UniProt P43140); assay: In vitro functional assay, isolated prostate, phenylepinephrine contraction; type: cell-based; details: for Selectivity α1B/α1A / Selectivity α1D/α1A: functional, from pKB; for Kb: read-out: α Adrenoceptor Subtype (pKB) α1A (converted)
T2 construct: from tissue; host or cells: isolated prostate tissue
T2 sequence (P43140 1-466): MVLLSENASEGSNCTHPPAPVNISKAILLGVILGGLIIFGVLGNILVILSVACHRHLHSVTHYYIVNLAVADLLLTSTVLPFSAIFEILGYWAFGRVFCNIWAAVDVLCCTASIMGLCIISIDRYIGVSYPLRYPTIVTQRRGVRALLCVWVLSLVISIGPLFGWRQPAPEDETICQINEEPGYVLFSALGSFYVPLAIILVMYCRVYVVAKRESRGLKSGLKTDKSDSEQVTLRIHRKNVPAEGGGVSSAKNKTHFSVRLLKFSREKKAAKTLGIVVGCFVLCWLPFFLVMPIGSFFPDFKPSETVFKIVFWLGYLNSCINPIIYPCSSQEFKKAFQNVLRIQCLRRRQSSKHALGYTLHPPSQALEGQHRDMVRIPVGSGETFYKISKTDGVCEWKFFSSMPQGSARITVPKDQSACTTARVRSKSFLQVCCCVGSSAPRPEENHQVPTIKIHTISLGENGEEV
Description: as §1

[3] = target: T3, α1D adrenoceptor (aorta) (Rattus norvegicus, UniProt P23944); assay: In vitro functional assay, isolated aorta, norepinephrine contraction; type: cell-based; details: for Kb: read-out: α Adrenoceptor Subtype (pKB) α1D (converted)
T3 construct: Isolated tissues were mounted in organ bath containing Krebs Henseleit buffer; from tissue; host or cells: isolated rat aorta
T3 sequence (P23944 1-561): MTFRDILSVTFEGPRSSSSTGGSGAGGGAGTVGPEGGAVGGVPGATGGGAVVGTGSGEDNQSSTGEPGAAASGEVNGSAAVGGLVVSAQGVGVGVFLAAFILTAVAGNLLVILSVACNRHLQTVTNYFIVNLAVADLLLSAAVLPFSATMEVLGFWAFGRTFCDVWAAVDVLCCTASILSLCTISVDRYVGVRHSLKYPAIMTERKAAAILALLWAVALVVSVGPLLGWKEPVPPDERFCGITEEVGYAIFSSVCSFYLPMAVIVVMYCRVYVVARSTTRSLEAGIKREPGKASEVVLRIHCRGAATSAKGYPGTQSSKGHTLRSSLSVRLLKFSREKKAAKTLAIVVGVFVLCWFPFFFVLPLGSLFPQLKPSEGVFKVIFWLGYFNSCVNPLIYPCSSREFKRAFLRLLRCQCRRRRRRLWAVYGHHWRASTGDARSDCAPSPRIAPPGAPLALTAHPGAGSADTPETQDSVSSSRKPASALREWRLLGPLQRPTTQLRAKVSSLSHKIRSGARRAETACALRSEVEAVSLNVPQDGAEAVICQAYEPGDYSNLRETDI
Description: as §1

[4] = target: T4, α1A adrenoceptor (Rattus norvegicus, UniProt P43140); assay: Radioligand binding, [3H] prazosin displacement, rat submaxillary membranes; details: for Ki: [3H] prazosin displacement, rat submaxillary membranes, read-out: Affinity (Ki) α1A (Rat Submaxillary); for α1B/α1A: ratio of binding affinities, rat liver / rat submaxillary
T4 construct: from tissue; host or cells: rat submaxillary gland membranes
T4 sequence (P43140 1-466): T2 sequence (P43140 1-466)
Outline: (§2)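 Rat membranes (submaxillary for α1A, liver for α1B; 150-250 μg protein) incubated with [3H]prazosin and compound in Tris 50 mM/EDTA 5 mM pH 7.4, 1 h at 24-25° C. Nonspecific binding with 300 nM prazosin; filtration, counting; Ki via Cheng–Prusoff.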

[5] = target: T5, α1B adrenoceptor (Rattus norvegicus, UniProt P15823); assay: Radioligand binding, [3H] prazosin displacement, rat liver membranes; details: read-out: Affinity (Ki) α1B (Rat Liver)
T5 construct: from tissue; host or cells: rat liver membranes
T5 sequence (P15823 1-515): T1 sequence (P15823 1-515)
Outline: as §2

[6] = rat prostate, phenylepinephrine

SMILES | Kb [1] | Selectivity α1B/α1A [2] | Selectivity α1D/α1A [2] | Kb [2, 6] | Kb [3] | Ki [4] | Ki [5] | α1B/α1A [4] | α Adrenoceptor Subtype (pKB) α1B [1] | α Adrenoceptor Subtype (pKB) α1A [2, 6] | α Adrenoceptor Subtype (pKB) α1D [3]
CCOc1ccccc1[N+]1([O-])CC[N+]([O-])(CCCN2C(=O)C3CC=CCC3C2=O)CC1 (centres unmarked) [Compound No. 10, 2-[3-{4-(2-Ethoxyphenyl)piperazin-1-yl, 1,4-N,N-dioxide}propyl]-3a,4,7,7a-tetrahydro-1H-isoindole-1,3(2H)-dione] | 18.6 nM | 13 | 40 | 1.48 nM | 58.9 nM | > 1000 nM | > 1000 nM |  |  |  | 
CCOc1ccccc1N1CCN(CC(O)CN2C(=O)C3CC=CCC3C2=O)CC1 (centres unmarked) [Compound No. 11, 2-[3-{4-(2-Ethoxyphenyl)piperazin-1-yl}-2-hydroxypropyl]-3a,4,7,7a-tetrahydro-1H-isoindole-1,3-(2H)-dione hydrochloride] | 0.759 nM | 0.1 | 0.5 | 7.24 nM | 3.72 nM | 6.4 nM | 191 nM | 30 |  |  | 
CCOc1ccccc1N1CCN(CCCN2C(=O)C3CC(O)C(O)CC3C2=O)CC1 (centres unmarked) [Compound No. 12, 2-[3-{4-(2-Ethoxyphenyl)piperazin-1-yl}propyl]-5,6-dihydroxy-3a,4,5,6,7,7a-hexahydro-1H-isoindole-1,3(2H)-dione] | 100 nM | 60 | 4.2 | 1.66 nM | 6.92 nM | 1.7 nM | 118 nM | 69 |  |  | 
CC(C)Oc1ccccc1N1CCN(CCCN2C(=O)C3CC(O)C(O)CC3C2=O)CC1 (centres unmarked) [Compound No. 13, 2-[3-{4-(2-Isopropoxyphenyl)piperazin-1-yl}propyl]-5,6-dihydroxy-3a,4,5,6,7,7a-hexahydro-1H-isoindole-1,3(2H)-dione] | 55 nM | 17 | 0.7 | 3.24 nM | 2.29 nM | 0.36 nM | 85 nM | 236 |  |  | 
CCOc1ccccc1N1CCN(CCCN2C(=O)C3CC(O)C(Cl)CC3C2=O)CC1.Cl (centres unmarked) [Compound No. 17] |  | 347 | 3.9 |  |  |  |  | 50 | 7 | 9.54 | 9.07
CC(C)Oc1ccccc1N1CCN(CCCN2C(=O)C3CC4OC4CC3C2=O)CC1 (centres unmarked) [Compound No. 19, 2-[3-{4-(2-Isopropoxyphenyl)piperazin-1-yl}propyl]-5,6-epoxy-3a,4,5,6,7,7a-hexahydro-1H-isoindole-1,3(2H)-dione] | 69.2 nM | 87 | 3.4 | 0.794 nM | 2.69 nM | 0.23 nM | 104 nM | 452 |  |  | 
CC(C)Oc1ccccc1N1CCN(CCCN2C(=O)C3CCC(O)CC3C2=O)CC1 (centres unmarked) [Compound No. 20, 2-[3-{4-(2-Isopropoxyphenyl)piperazin-1-yl}propyl]-5-hydroxy-3a,4,5,6,7,7a-hexahydro-1H-isoindole-1,3(2H)-dione] | 102 nM | 240 | 2.5 | 0.427 nM | 1.07 nM | 0.28 nM | 92 nM | 328 |  |  | 
CC(C)Oc1ccc(O)cc1N1CCN(CCCN2C(=O)C3CC=CCC3C2=O)CC1.Cl (centres unmarked) [Compound No. 21, 2-[3-{4-(2-Isopropoxy-5-hydroxyphenyl)piperazin-1-yl}propyl]-3a,4,7,7a-tetrahydro-1H-isoindole-1,3(2H)-dione hydrochloride] | 70.8 nM | 15 | 5.24 | 4.68 nM | 24.5 nM | 3.4 nM | 643 nM | 189 |  |  | 
CC(C)Oc1cc([N+](=O)[O-])ccc1N1CCN(CCCN2C(=O)C3CC=CCC3C2=O)CC1 (centres unmarked) [Compound No. 25, 2-[3-{4-(2-Isopropoxy-4-nitrophenyl)piperazin-1-yllpropyl]-3a,4,7,7a-tetrahydro-1H-isoindole-1,3(2H)-dione hydrochloride] | 100 nM | 22 | 0.93 | 4.57 nM | 4.27 nM | 0.86 nM | 173 nM | 201 |  |  | 
CC(C)Oc1ccccc1N1CCN(CCCN2C(=O)C3CC(O)C(Cl)CC3C2=O)CC1.Cl (centres unmarked) [Compound No. 28, 2-[3-{4-(2-Isopropoxyphenyl)piperazin-1-yl}propyl]-5-chloro-6-hydroxy-3a,4,5,6,7,7a-hexahydro-1H-isoindole-1,3(2H)-dione hydrochloride] | 43.7 nM | 45 | 1.4 | 0.977 nM | 1.41 nM | 0.24 nM | 41 nM | 171 |  |  | 
CC(C)Oc1ccccc1N1CCN(CCCN2C(=O)C3CCCC(O)C3C2=O)CC1.Cl (centres unmarked) [Compound No. 60, 2-[3-{4-(2-Isopropoxyphenyl)piperazin-1-yl}-propyl]4-hydroxy-3a,4,5,6,7,7a-hexahydro-1H-isoindole-1,3(2H)-dione hydrochloride] |  |  | 18 | 0.363 nM | 6.46 nM | 1.2 nM | 142 nM | 118 |  |  | 
COc1ccccc1N1CCN(CC(O)CN2C(=O)C3CC=CCC3C2=O)CC1.Cl (centres unmarked) [compound 06, 2-[3-{4-(2-Methoxyphenyl)piperazin-1-yl}-2-hydroxypropyl]-3a,4,7,7a-tetrahydro-1H-isoindole-1,3(2H)-dione hydrochloride] |  |  | 0.56 | 6.61 nM | 3.72 nM | 38 nM | 263 nM | 7 |  |  | 
